What was measured:
KRas = KRas (Homo sapiens (Human), UniProt P01116); experiment: KRas GDP HTRF (BODIPY-GDP exchange TR-FRET); format: biochemical
Description: KRAS Biochemical Assay—BODIPY-GDP Exchange TR-FRET. Biochemical compound potencies were assessed by evaluating inhibition of SOS1-mediated nucleotide exchange in KRAS G12D. The SOS1-promoted exchange of fluorescently-labeled GDP (BODIPY-GDP) was monitored by time-resolved fluorescence resonance energy transfer (TR-FRET). Compounds solubilized in DMSO were dispensed as concentration series into 384-well white assay plates. […] The reaction was initiated with the addition of 5 μL of 3 nM recombinant human SOS1 and 300 nM BODIPY-GDP in assay buffer. After a 60-minute incubation, the fluorescence was measured with excitation at 337 nm and emission at 490 and 520 nm. The TR-FRET ratio was determined as the fluorescence at 520 nm divided by the fluorescence at 490 nm multiplied by 10,000. […] The normalized TR-FRET results were plotted against compound concentration, and the data fit to a 4-parameter Hill equation to determine the IC50 values.

KRas(G12V) = KRas(G12V) (Homo sapiens (Human), UniProt P01116, G12V); experiment: KRas(G12V) GDP HTRF (BODIPY-GDP exchange TR-FRET); format: biochemical
Chain of KRas(G12V) (P01116-2 other isoform, or with tags, fused parts or gaps G12V): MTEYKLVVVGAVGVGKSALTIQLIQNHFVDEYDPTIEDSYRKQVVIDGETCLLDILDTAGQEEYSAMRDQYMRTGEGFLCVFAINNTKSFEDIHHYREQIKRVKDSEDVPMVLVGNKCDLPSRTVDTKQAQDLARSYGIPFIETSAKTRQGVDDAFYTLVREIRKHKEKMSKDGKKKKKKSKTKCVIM

Chain of KRas (P01116-2 other isoform, or with tags, fused parts or gaps): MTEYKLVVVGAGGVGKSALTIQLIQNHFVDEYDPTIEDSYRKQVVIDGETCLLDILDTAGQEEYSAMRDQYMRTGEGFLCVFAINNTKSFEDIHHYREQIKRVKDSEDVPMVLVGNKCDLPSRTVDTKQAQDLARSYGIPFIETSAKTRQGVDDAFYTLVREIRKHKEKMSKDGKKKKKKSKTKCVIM

Row | IC50 (KRas) [nM] | IC50 (KRas(G12V)) [nM] | SMILES
1 | 1.2 | 0.37 | Cc1cc(N)nc(-c2c(Cl)c3c4c(ncnc4c2F)N([C@H](C)c2cccnc2N)CCO3)c1C(F)(F)F (atropisomer, axis not shown) [Example 53a, 6-((R)-4-((R)-1-(2-aminopyridin-3-yl)ethyl)-8-chloro-10-fluoro-5,6-dihydro-4H-[1,4]oxazepino[5,6,7-de]quinazolin-9-yl)-4-methyl-5-(trifluoromethyl)pyridin-2-amine]
2 | 2900 | 600 | Cc1cc(N)nc(-c2c(Cl)c3c4c(ncnc4c2F)N([C@H](C)c2cccnc2N)CCO3)c1C(F)(F)F (atropisomer, axis not shown) [Example 53b, 6-((S)-4-((R)-1-(2-aminopyridin-3-yl)ethyl)-8-chloro-10-fluoro-5,6-dihydro-4H-[1,4]oxazepino[5,6,7-de]quinazolin-9-yl)-4-methyl-5-(trifluoromethyl)pyridin-2-amine]
3 | 143 | 12 | Cc1cc(N)nc(-c2c(Cl)c3c4c(nc(OC(C)(C)[C@@H]5CC(F)(F)CN5C)nc4c2F)N([C@H](C)c2cccnc2N)CCO3)c1C(F)(F)F (atropisomer, axis not shown) [Example 72, 6-((R)-4-((R)-1-(2-aminopyridin-3-yl)ethyl)-8-chloro-2-((2-((S)-4,4-difluoro-1-methylpyrrolidin-2-yl)propan-2-yl)oxy)-10-fluoro-5,6-dihydro-4H-[1,4]oxazepino[5,6,7-de]quinazolin-9-yl)-4-methyl-5-(trifluoromethyl)pyridin-2-amine]
4 | 0.165 | 0.09 | Cc1cc(N)nc(-c2c(Cl)c3c4c(nc(OC[C@@H]5CC(F)(F)CN5C)nc4c2F)N([C@H](C)c2ccnnc2N)CCO3)c1C(F)(F)F (atropisomer, axis not shown) [Example 85, 4-((R)-1-((R)-9-(6-amino-4-methyl-3-(trifluoromethyl)pyridin-2-yl)-8-chloro-2-(((S)-4,4-difluoro-1-methylpyrrolidin-2-yl)methoxy)-10-fluoro-5,6-dihydro-4H-[1,4]oxazepino[5,6,7-de]quinazolin-4-yl)ethyl)pyridazin-3-amine]
5 | 0.83 | 0.09 | Cc1cc(N)nc(-c2c(Cl)c3c4c(nc(OC[C@H](C)N5CCOCC5)nc4c2F)N([C@H](C)c2cccnc2N)CCO3)c1C(F)(F)F (atropisomer, axis not shown) [Example 95a, 6-((R)-4-((R)-1-(2-aminopyridin-3-yl)ethyl)-8-chloro-10-fluoro-2-((S)-2-morpholinopropoxy)-5,6-dihydro-4H-[1,4]oxazepino[5,6,7-de]quinazolin-9-yl)-4-methyl-5-(trifluoromethyl)pyridin-2-amine]
6 | 0.484 | 0.12 | Cc1cc(N)nc(-c2c(Cl)c3c4c(nc(OC[C@@H](C)N5CCOCC5)nc4c2F)N([C@H](C)c2cccnc2N)CCO3)c1C(F)(F)F (atropisomer, axis not shown) [Example 95b, 6-((R)-4-((R)-1-(2-aminopyridin-3-yl)ethyl)-8-chloro-10-fluoro-2-((R)-2-morpholinopropoxy)-5,6-dihydro-4H-[1,4]oxazepino[5,6,7-de]quinazolin-9-yl)-4-methyl-5-(trifluoromethyl)pyridin-2-amine]
7 | 0.299 | 0.08 | Cc1cc(N)nc(-c2c(Cl)c3c4c(nc(OC[C@@H]5COCCN5)nc4c2F)N([C@H](C)c2cccnc2N)CCO3)c1C(F)(F)F (atropisomer, axis not shown) [Example 96, 6-((R)-4-((R)-1-(2-aminopyridin-3-yl)ethyl)-8-chloro-10-fluoro-2-(((S)-morpholin-3-yl)methoxy)-5,6-dihydro-4H-[1,4]oxazepino[5,6,7-de]quinazolin-9-yl)-4-methyl-5-(trifluoromethyl)pyridin-2-amine]
8 | 0.359 | 0.08 | Cc1cc(N)nc(-c2c(Cl)c3c4c(nc(OC[C@H]5COCCN5)nc4c2F)N([C@H](C)c2cccnc2N)CCO3)c1C(F)(F)F (atropisomer, axis not shown) [Example 97, 6-((R)-4-((R)-1-(2-aminopyridin-3-yl)ethyl)-8-chloro-10-fluoro-2-(((R)-morpholin-3-yl)methoxy)-5,6-dihydro-4H-[1,4]oxazepino[5,6,7-de]quinazolin-9-yl)-4-methyl-5-(trifluoromethyl)pyridin-2-amine]
9 | 0.557 | 0.11 | Cc1cc(N)nc(-c2c(Cl)c3c4c(nc(OCC56C[C@@H](F)CN5C[C@H](F)C6)nc4c2F)N([C@H](C)c2cccnc2N)CCO3)c1C(F)(F)F (atropisomer, axis not shown) [Example 98a, 6-((R)-4-((R)-1-(2-aminopyridin-3-yl)ethyl)-8-chloro-2-(((2R,6R)-2,6-difluorotetrahydro-1H-pyrrolizin-7a(5H)-yl)methoxy)-10-fluoro-5,6-dihydro-4H-[1,4]oxazepino[5,6,7-de]quinazolin-9-yl)-4-methyl-5-(trifluoromethyl)pyridin-2-amine]
10 | 0.125 | 0.07 | Cc1cc(N)nc(-c2c(Cl)c3c4c(nc(OC[C@@H]5C[C@H]6COCCN65)nc4c2F)N([C@H](C)c2cccnc2N)CCO3)c1C(F)(F)F (atropisomer, axis not shown) [Example 99a, 6-((R)-2-(((6S,8S)-4-oxa-1-azabicyclo[4.2.0]octan-8-yl)methoxy)-4-((R)-1-(2-aminopyridin-3-yl)ethyl)-8-chloro-10-fluoro-5,6-dihydro-4H-[1,4]oxazepino[5,6,7-de]quinazolin-9-yl)-4-methyl-5-(trifluoromethyl)pyridin-2-amine]
11 | 0.0748 | 0.08 | Cc1cc(N)nc(-c2c(Cl)c3c4c(nc(OC[C@H]5C[C@@H]6COCCN65)nc4c2F)N([C@H](C)c2cccnc2N)CCO3)c1C(F)(F)F (atropisomer, axis not shown) [Example 99b, 6-((R)-2-(((6R,8R)-4-oxa-1-azabicyclo[4.2.0]octan-8-yl)methoxy)-4-((R)-1-(2-aminopyridin-3-yl)ethyl)-8-chloro-10-fluoro-5,6-dihydro-4H-[1,4]oxazepino[5,6,7-de]quinazolin-9-yl)-4-methyl-5-(trifluoromethyl)pyridin-2-amine]
12 | 1.13 | – | Cc1cc(N)nc(-c2c(Cl)c3c4c(nc(OC[C@@H]5CCCN5CC(F)F)nc4c2F)N([C@H](C)c2cncnc2N)CCO3)c1C(F)(F)F (atropisomer, axis not shown) [Example 103a, 5-((R)-1-((R)-9-(6-amino-4-methyl-3-(trifluoromethyl)pyridin-2-yl)-8-chloro-2-(((S)-1-(2,2-difluoroethyl)pyrrolidin-2-yl)methoxy)-10-fluoro-5,6-dihydro-4H-[1,4]oxazepino[5,6,7-de]quinazolin-4-yl)ethyl)pyrimidin-4-amine]
13 | 2.87 | 0.34 | COCCN1CCC(Oc2nc3c4c(c(Cl)c(-c5nc(N)cc(C)c5C(F)(F)F)c(F)c4n2)OCCN3[C@H](C)c2cccnc2N)CC1 (atropisomer, axis not shown) [Example 126, 6-((R)-4-((R)-1-(2-aminopyridin-3-yl)ethyl)-8-chloro-10-fluoro-2-((1-(2-methoxyethyl)piperidin-4-yl)oxy)-5,6-dihydro-4H-[1,4]oxazepino[5,6,7-de]quinazolin-9-yl)-4-methyl-5-(trifluoromethyl)pyridin-2-amine]
14 | 0.0894 | 0.07 | Cc1cc(N)nc(-c2c(Cl)c3c4c(nc(OC[C@@H]5CCCN5C)nc4c2F)N([C@H](C)c2cccnc2N)CCO3)c1C(F)(F)F (atropisomer, axis not shown) [Example 127, 6-((R)-4-((R)-1-(2-aminopyridin-3-yl)ethyl)-8-chloro-10-fluoro-2-(((S)-1-methylpyrrolidin-2-yl)methoxy)-5,6-dihydro-4H-[1,4]oxazepino[5,6,7-de]quinazolin-9-yl)-4-methyl-5-(trifluoromethyl)pyridin-2-amine]
15 | 0.149 | 0.09 | Cc1cc(N)nc(-c2c(Cl)c3c4c(nc(OC[C@]56CCCN5CCOC6)nc4c2F)N([C@H](C)c2cccnc2N)CCO3)c1C(F)(F)F (atropisomer, axis not shown) [Example 128a, 6-((R)-4-((R)-1-(2-aminopyridin-3-yl)ethyl)-8-chloro-10-fluoro-2-(((R)-tetrahydro-1H-pyrrolo[2,1-c][1,4]oxazin-8a(6H)-yl)methoxy)-5,6-dihydro-4H-[1,4]oxazepino[5,6,7-de]quinazolin-9-yl)-4-methyl-5-(trifluoromethyl)pyridin-2-amine]
16 | 0.469 | 0.19 | Cc1cc(N)nc(-c2c(Cl)c3c4c(nc(OC[C@@]56CCCN5CCOC6)nc4c2F)N([C@H](C)c2cccnc2N)CCO3)c1C(F)(F)F (atropisomer, axis not shown) [Example 128b, 6-((R)-4-((R)-1-(2-aminopyridin-3-yl)ethyl)-8-chloro-10-fluoro-2-(((S)-tetrahydro-1H-pyrrolo[2,1-c][1,4]oxazin-8a(6H)-yl)methoxy)-5,6-dihydro-4H-[1,4]oxazepino[5,6,7-de]quinazolin-9-yl)-4-methyl-5-(trifluoromethyl)pyridin-2-amine]
17 | 5.41 | 0.76 | Cc1cc(N)nc(-c2c(Cl)c3c4c(nc(OC[C@@H]5CCCN5CC(F)F)nc4c2F)N([C@H](C)c2nccnc2N)CCO3)c1C(F)(F)F (atropisomer, axis not shown) [Example 158a, 3-((R)-1-((R)-9-(6-amino-4-methyl-3-(trifluoromethyl)pyridin-2-yl)-8-chloro-2-(((S)-1-(2,2-difluoroethyl)pyrrolidin-2-yl)methoxy)-10-fluoro-5,6-dihydro-4H-[1,4]oxazepino[5,6,7-de]quinazolin-4-yl)ethyl)pyrazin-2-amine]

Reference: patent publication US20240383915A1, “OXAZEPINE COMPOUNDS AND USES THEREOF IN THE TREATMENT OF CANCER” (Genentech, Inc., priority 2021, published 2024)
